One may read the Ki as a dissociation constant, usually derived from enzyme kinetics or from competition with a known ligand. The term inhibition denotes the drop in the measured response relative to a control, in per cent. High values mean a strong effect, low ones a weak effect.

The record followed here is ChEMBL document CHEMBL1131957, “Structure-activity relationship of a series of diaminoalkyl substituted benzimidazole as neuropeptide Y Y1 receptor antagonists” (Bioorg Med Chem Lett, 1999).

Assay [1] deals with T1, Neuropeptide Y receptor type 1 (Homo sapiens, UniProt P25929).
T1 sequence (P25929 whole entry): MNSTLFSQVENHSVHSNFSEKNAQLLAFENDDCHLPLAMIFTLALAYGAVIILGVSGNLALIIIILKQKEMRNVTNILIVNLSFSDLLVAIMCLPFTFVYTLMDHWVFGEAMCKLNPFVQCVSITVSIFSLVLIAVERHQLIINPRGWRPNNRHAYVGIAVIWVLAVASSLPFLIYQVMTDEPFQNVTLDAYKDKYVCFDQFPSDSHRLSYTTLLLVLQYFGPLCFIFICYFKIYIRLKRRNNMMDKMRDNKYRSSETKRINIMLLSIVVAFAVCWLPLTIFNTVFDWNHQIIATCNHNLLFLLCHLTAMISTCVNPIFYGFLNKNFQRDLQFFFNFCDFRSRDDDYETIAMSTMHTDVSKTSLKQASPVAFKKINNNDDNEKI
Nature of the assay: Ability to displace [125I]-peptide YY binding to cloned human Neuropeptide Y receptor type 1 expressed in AV-12 cells. The format is cell-based, AV12.

The target of assay [2] is T2, Neuropeptide Y receptor type 2 (Homo sapiens) (UniProt P49146).
T2 sequence (whole entry): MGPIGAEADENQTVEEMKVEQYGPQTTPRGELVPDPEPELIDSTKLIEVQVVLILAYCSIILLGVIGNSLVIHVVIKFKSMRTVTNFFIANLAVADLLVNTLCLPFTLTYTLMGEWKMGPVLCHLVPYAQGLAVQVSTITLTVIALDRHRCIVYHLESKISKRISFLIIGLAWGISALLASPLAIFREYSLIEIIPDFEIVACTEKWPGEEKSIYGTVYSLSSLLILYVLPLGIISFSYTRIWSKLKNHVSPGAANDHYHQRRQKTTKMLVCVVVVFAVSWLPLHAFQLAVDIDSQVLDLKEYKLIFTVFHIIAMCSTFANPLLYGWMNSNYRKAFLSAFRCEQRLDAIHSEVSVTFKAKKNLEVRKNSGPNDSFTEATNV
Nature of the assay: Ability to displace [125I]-peptide YY binding to cloned human Neuropeptide Y receptor type 2 expressed in CHO cells at a concentration of 1 uM. The format is cell-based.

For a further assay, the system named is SK-N-MC. Kind of assay: Ability to antagonize 1 nM NPY''s inhibition of forskolin-stimulated cyclic AMP accumulation in SK-N-MC cells. The format is functional, cell-based, Homo sapiens.
In assay [3] the target is T3, Neuropeptide Y receptor type 5 (Homo sapiens) (UniProt Q15761).
T3 sequence (whole entry): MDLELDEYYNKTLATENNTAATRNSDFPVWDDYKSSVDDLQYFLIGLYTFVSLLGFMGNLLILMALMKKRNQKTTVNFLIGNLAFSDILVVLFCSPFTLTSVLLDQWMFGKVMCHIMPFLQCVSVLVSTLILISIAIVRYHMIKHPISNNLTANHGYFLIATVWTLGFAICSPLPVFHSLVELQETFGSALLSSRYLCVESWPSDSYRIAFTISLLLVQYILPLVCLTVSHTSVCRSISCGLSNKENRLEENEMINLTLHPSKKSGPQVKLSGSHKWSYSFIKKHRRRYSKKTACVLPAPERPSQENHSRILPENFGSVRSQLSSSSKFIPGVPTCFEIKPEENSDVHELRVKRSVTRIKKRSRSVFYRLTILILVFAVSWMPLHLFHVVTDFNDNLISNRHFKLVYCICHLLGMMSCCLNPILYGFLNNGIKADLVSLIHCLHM
Nature of the assay: Ability to displace [125I]-peptide YY binding to cloned human Neuropeptide Y receptor type 5 expressed in CHO cells at a concentration of 1 uM. Format: cell-based.

Assay [4] addresses Neuropeptide Y receptor type 4 (Homo sapiens) (UniProt P50391). Kind of assay: Ability to displace [125I]-peptide YY binding to cloned human Neuropeptide Y receptor type 4 expressed in CHO cells at a concentration of 1 uM. Format: cell-based.

Where only a bound is given, the exact number is not on record here.

Neuropeptide Y receptor type 4 (Homo sapiens), sequence (P50391 whole entry): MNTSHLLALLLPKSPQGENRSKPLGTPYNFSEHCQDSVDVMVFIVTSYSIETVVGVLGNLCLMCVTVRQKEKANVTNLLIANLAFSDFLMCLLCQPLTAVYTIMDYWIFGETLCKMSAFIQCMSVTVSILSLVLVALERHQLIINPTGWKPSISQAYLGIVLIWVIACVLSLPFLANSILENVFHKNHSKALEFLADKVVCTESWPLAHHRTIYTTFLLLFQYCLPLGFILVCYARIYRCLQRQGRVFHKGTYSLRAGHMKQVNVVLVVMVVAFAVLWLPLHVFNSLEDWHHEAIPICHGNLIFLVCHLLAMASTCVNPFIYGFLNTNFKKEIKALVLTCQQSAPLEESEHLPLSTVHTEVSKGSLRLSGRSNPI

Take `O=C(CCN1CCC(CCCn2c(COc3ccccc3)nc3c(OCCCN4CCCCC4)cccc32)CC1)c1ccccc1`: in assay [1], affinity was put at a Ki of 0.112 nM. On the same count and under the same terms, the same measure for `c1ccc(CCN2CCC(CCCn3c(COc4ccccc4)nc4c(OCCCN5CCCCC5)cccc43)CC2)cc1`: 0.191 nM. For `CN1CCC(CCCn2c(COc3ccccc3)nc3c(OCCCN4CCCCC4)cccc32)CC1`, the inhibition constant Ki in assay [1] came out at 1.62 nM.

With `C=CCN1CCC(CCCn2c(COc3ccccc3)nc3c(OCCCN4CCCCC4)cccc32)CC1`, the affinity in assay [1], expressed as Ki, was 1.63 nM.

Turning to `c1ccc(OCc2nc3c(OCCCN4CCCCC4)cccc3n2CCCC2CCN(CC3CCCCC3)CC2)cc1`, the Ki in assay [1] worked out at 0.393 nM.

As to `C(=C/c1ccccc1)/CN1CCC(CCCn2c(COc3ccccc3)nc3c(OCCCN4CCCCC4)cccc32)CC1`, the inhibition constant (Ki) in assay [1] was found to be 0.183 nM. As for `Ic1ccc(CCN2CCC(CCCn3c(COc4ccccc4)nc4c(OCCCN5CCCCC5)cccc43)CC2)cc1`, the inhibition in assay [2], in assay [3] and in assay [4] was below 50% in each case. Further, the inhibition constant (Ki) is 6 nM with SK-N-MC and 0.052 nM in assay [1].

As for `c1ccc(OCc2nc3c(OCCCN4CCCCC4)cccc3n2CCCC2CCN(CCCN3CCCCC3)CC2)cc1`, the Ki was 0.564 nM in the assay on SK-N-MC and 0.106 nM in assay [1].

With `c1ccc(CCCN2CCC(CCCn3c(COc4ccccc4)nc4c(OCCCN5CCCCC5)cccc43)CC2)cc1`, the values for the Ki (in the assay with SK-N-MC; in assay [1]) were 3.4 nM and 0.361 nM, respectively.

As for `CC(C)CN1CCC(CCCn2c(COc3ccccc3)nc3c(OCCCN4CCCCC4)cccc32)CC1`, the Ki in assay [1] was 0.829 nM. Regarding `c1ccc(OCc2nc3c(OCCCN4CCCCC4)cccc3n2CCCC2CCNCC2)cc1`, the affinity in assay [1], expressed as Ki, was 4.5 nM. With `O=C(CCCN1CCC(CCCn2c(COc3ccccc3)nc3c(OCCCN4CCCCC4)cccc32)CC1)c1ccccc1`, in assay [1], the inhibition constant Ki came out at 0.132 nM. In assay [1], `CC(C)CCN1CCC(CCCn2c(COc3ccccc3)nc3c(OCCCN4CCCCC4)cccc32)CC1` yielded an inhibition constant Ki of 0.29 nM.

As to `CC(C)N1CCC(CCCn2c(COc3ccccc3)nc3c(OCCCN4CCCCC4)cccc32)CC1`, the Ki in assay [1] was 1.61 nM.

Turning to `c1ccc(OCc2nc3c(OCCCN4CCCCC4)cccc3n2CCCC2CCN(CCC3CCCCC3)CC2)cc1`, the Ki in the assay with SK-N-MC was found to be 5.2 nM; in assay [1], 0.285 nM. `O=C(CN1CCC(N2CCCCC2)CC1)c1c(COc2ccc(Cl)cc2)n(CCCC2CCCNC2)c2ccccc12` (stereo not given): the inhibitory constant (Ki) in assay [1] was 0.75 nM. In turn, `Oc1ccc(CCN2CCC(CCCn3c(COc4ccccc4)nc4c(OCCCN5CCCCC5)cccc43)CC2)cc1` showed a Ki in assay [1] of 0.313 nM. In assay [1], `C=CCCN1CCC(CCCn2c(COc3ccccc3)nc3c(OCCCN4CCCCC4)cccc32)CC1` returned an inhibition constant (Ki) of 0.707 nM.
